Entries after “also recorded” stand apart in the source; their conditions may differ. Read-outs that look alike come from different tables or passages of the source.
Assays:
[1] = target: T1, pTDP-43 aggregates in FTLD-TDP brain sections (Homo sapiens, UniProt Q13148); assay: Micro-autoradiography staining in brain sections from patients with FTD; type: binding; conditions: 60 nM radioligand, frontal cortex brain sections from FTLD-TDP donors
T1 construct: from tissue; host or cells: frozen post-mortem human brain sections from FTLD-TDP donors
T1 sequence (Q13148 whole entry): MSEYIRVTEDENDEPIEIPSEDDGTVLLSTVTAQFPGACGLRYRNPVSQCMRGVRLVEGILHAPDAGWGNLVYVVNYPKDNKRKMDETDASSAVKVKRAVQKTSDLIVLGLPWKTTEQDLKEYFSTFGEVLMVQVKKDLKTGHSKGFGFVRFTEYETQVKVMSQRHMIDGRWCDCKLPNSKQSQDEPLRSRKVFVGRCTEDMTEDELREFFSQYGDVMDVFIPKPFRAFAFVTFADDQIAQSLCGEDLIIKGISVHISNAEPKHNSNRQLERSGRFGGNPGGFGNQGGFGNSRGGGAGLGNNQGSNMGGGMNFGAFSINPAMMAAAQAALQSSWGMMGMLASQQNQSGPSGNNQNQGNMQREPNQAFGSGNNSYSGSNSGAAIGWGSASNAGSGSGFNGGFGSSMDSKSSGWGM
Method: All tissues were collected from donors for or from whom a written informed consent for a brain autopsy and the use of the material and clinical information for research purposes had been obtained by the respective brain banks. All samples were anonymized and coded. Frozen brain tissue blocks with confirmed TDP-43 pathology upon autopsy were processed using a cryotome to generate sections of 10 μm in thickness and mounted on glass slides. Sections were kept at −80° C. until use.
Brain sections were immunostained using a commercially available antibody, specific for phosphorylated serine at amino acid 409/410 (anti-pTDP-43 pS409/410, Cosmobio, TIP-PTD-P02). Sections were fixed for 15 minutes at 4° C. with 4% formaldehyde (Sigma, 252549) and washed three times for five minutes with 1×PBS (Dulbecco's phosphate buffered saline, Sigma D1408) at room temperature. Next, sections were saturated and permeabilized in blocking buffer (PBS, 10% normal goat serum (NGS), 0.25% Triton X-100) for one hour at room temperature and incubated overnight at 4° C. with primary antibody against pTDP-43 (diluted at 1/250 in PBS, 5% NGS, 0.25% Triton X-100). The following day, sections were washed three times for five minutes with 1×PBS before incubation with a secondary, AlexaFluor647-labeled goat-anti-rabbit antibody (Abcam, ab150079, diluted at 1/500 in PBS) for 45 minutes at room temperature. […]

[2] = target: T2, recombinant flag-tagged TDP-43 aggregates (Homo sapiens, UniProt Q13148); assay: Kd determination on recombinant TDP-43 aggregates with filter-binding assay
T2 construct: FLAG
T2 sequence (Q13148 whole entry): as above
Method: The TDP-43 aggregation protocol (Shimonaka et al., 2016) was implemented to generate TDP-43 aggregates. The protein preparation of high purity without any degradation was used for the aggregation procedure.
2.1 Kd Determination on Recombinant TDP-43 Aggregates with Filter-Binding Assay of [^3H]-Compound 1
Recombinant flag-tagged TDP-43 aggregates (1.3 μM) were incubated in the presence of [^3H]-Compound 1 with increasing concentrations of radioligand from 0 to 150 nM in a total reaction volume of 100 μL, for two hours at room temperature. 45 μL of sample (corresponding to each concentration) in duplicate was filtered under vacuum on a UniFilter-96 GF/C plate. The filters were washed 5 times with ice-cold buffer (50 mM Tris pH 7.4) and then dried overnight. 30 μL scintillation liquid was added in each well for 30 minutes before quantifying the signal on a Microbeta Trilux device (Perkin Elmer). The non-specific signal was determined with an excess of unlabeled Compound 1 (10 μM) and the specific binding was calculated by subtracting the non-specific signal from the total signal.

[3] = target: T3, Human brain derived TDP-43 aggregates (Homo sapiens, UniProt Q13148); assay: Micro-radiobinding competition assay on human FTD sarkosyl-insoluble brain extracts; type: binding; conditions: radioligand [3H]-Compound 52 (75 nM); for Human brain derived TDP-43 aggregates Mean % competition at 250 nM: 250 nM test compound; for Human brain derived TDP-43 aggregates Mean % competition at 2 μM: 2 μM test compound; for Ki: 0.24 nM to 2 μM test compound
T3 construct: A sample of brain tissue (frontal or temporal cortex) was homogenized; from tissue; host or cells: sarkosyl-insoluble fraction of human FTD brain (frontal or temporal cortex)
T3 sequence (Q13148 whole entry): as above
Method: Human brain extracts were prepared as described in Laferriere et al., 2019, Nature Neurosc. A sample of brain tissue (frontal or temporal cortex) was homogenized at 1:4 (w/v) ratio in the homogenization-solubilization (HS) buffer at 4° C. using tissue homogenizer (Precellys) with CKmix homogenization tubes. The following sequence was used for homogenization: 3 cycles of 30 seconds at 5000 rpm (with 15 seconds pause between each cycle). Homogenized samples were aliquoted and stored at −80° C. in 1.5 mL low protein binding tubes.
Brain homogenates were thawed on ice and resuspended in HS buffer to obtain a final concentration of 2% sarkosyl, 1 unit/μL Benzonase and 1 mM MgCl2. The samples were then incubated at 37° C. under constant shaking at 600 rpm on a thermomixer for 45 minutes (min). The supernatants were collected in a new tube (sarkosyl-soluble fraction, S1). The pellet was resuspended in 1000 μL of myelin floatation buffer and centrifuged at 20,000 g for 60 min at 4° C. The supernatant was carefully removed to remove all the floating lipids. This step was repeated if all the lipids could not be removed in a single step. The pellet was subsequently washed with Phosphate-Buffered Saline (PBS) and centrifuged for 30 min at 20,000 g at 4° C. The final pellet was resuspended in 200 μL PBS and stored at −80° C. (sarkosyl-insoluble fraction). The samples were analyzed by immunoblotting in denaturing conditions.
Human FTD sarkosyl-insoluble brain extracts were spotted onto microarray slides. The slides were incubated with [^3H]-Compound 52 or [^3H]-Compound 16 ligands at 75 nM or 40 nM, respectively, and the example compounds (non-radiolabelled) at 2 μM and 250 nM. In some cases, the non-radiolabelled example compounds were further assessed for a range of different concentrations, varying from 0.24 nM to 2 μM for determination of the inhibition constant (Ki). After incubation, slides were washed and scanned by a real-time autoradiography system (BeaQuant, ai4R). Quantification of the signal was performed by using the Beamage image analysis software (ai4R). Non-specific signal was determined with an excess of non-radiolabelled compound 52 or compound 16 (2 μM) and specific binding was calculated by subtracting the non-specific signal from the total signal. Competition was calculated as percent, where 0% was defined as the specific binding in the presence of vehicle and 100% as the values obtained in the presence of excess of the non-radiolabelled compound 52 or compound 16. Ki values were calculated in GraphPad Prism7 by applying a nonlinear regression curve fit using a one site, specific binding model. Measurements were performed with at least two technical replicates in the two-concentration competition experiment and with one technical replicate in the experiments including a range of concentrations. For compounds tested in more than one experiment, the mean of the replicates or Ki values in independent experiments is reported.

Kd ([2]; data from three independent experiments, read-out: average Kd)	Kd ([2]; filter-binding assay, tritiated radioligand 0 to 150 nM, one-site specific binding model (FIG. 1), read-out: Kd value on recombinant flag-tagged TDP-43 aggregates)	specific binding to recombinant TDP-43 aggregates ([2]; filter-binding assay, non-specific signal subtracted)	Human brain derived TDP-43 aggregates Mean % competition at 250 nM [3]	Human brain derived TDP-43 aggregates Mean % competition at 2 μM [3]	Ki [3]	Structure (SMILES)	micro-autoradiography signal (silver grains) co-localization with pTDP-43 antibody staining [1]
18.4 ± 4 nM	15 nM	high specific binding				Cn1cc(N2CCc3nc(-c4ccc(N5CC[C@@H](F)C5)nc4)sc3C2=O)cn1 [[^3H]-Compound 1, (R)-2-(6-(3-fluoropyrrolidin-1-yl)pyridin-3-yl)-5-(1-methyl-1H-pyrazol-4-yl)-6,7-dihydrothiazolo[5,4-c]pyridin-4(5H)-one]	Accumulation of silver grains on pTDP-43 aggregates; also recorded: showed co-localization with pTDP-43 aggregates
			44.0ª %	80.9ª %		N#Cc1cc(N2CCc3nc(-c4ccc(N5CCC[C@H](F)C5)nc4)sc3C2=O)ccc1N [Example 32]	
			40.8ª %	70.8ª %	9.9 nM	Nc1cc(N2CCc3nc(-c4ccc(N5CC[C@H](F)C5)nc4)sc3C2=O)ccc1F [Example 26, (S)-5-(3-amino-4-fluorophenyl)-2-(6-(3-fluoropyrrolidin-1-yl)pyridin-3-yl)-6,7-dihydrothiazolo[5,4-c]pyridin-4(5H)-one]	
			54.3ª %	80.2ª %	128 nM	Cn1cc(N2CCc3nc(-c4ccc(N5CC[C@@H](F)C5)cc4)sc3C2=O)cn1 [Example 27]	

The remaining lines, values behind:

Structure (SMILES)	Kd ([2]; data from three independent experiments, read-out: average Kd)	Kd ([2]; filter-binding assay, tritiated radioligand 0 to 150 nM, one-site specific binding model (FIG. 1), read-out: Kd value on recombinant flag-tagged TDP-43 aggregates)	specific binding to recombinant TDP-43 aggregates ([2]; filter-binding assay, non-specific signal subtracted)	Human brain derived TDP-43 aggregates Mean % competition at 250 nM [3]	Human brain derived TDP-43 aggregates Mean % competition at 2 μM [3]	Ki [3]	micro-autoradiography signal (silver grains) co-localization with pTDP-43 antibody staining [1]
Nc1cccc(N2CCc3nc(-c4ccc(N5CC[C@@H](F)C5)nc4)sc3C2=O)c1F [Example 24]				56.9ª %	84.1ª %	110 nM	
Nc1cc(N2CCc3nc(-c4ccc(N5CCCC5)nc4)sc3C2=O)ccc1F [Example 3, 5-(3-amino-4-fluorophenyl)-2-(6-(pyrrolidin-1-yl)pyridin-3-yl)-6,7-dihydrothiazolo[5,4-c]pyridin-4(5H)-one]				62.2ª %	91.2ª %	73.1 nM	
Cn1cc(N2CCc3nc(-c4ccc(N5CC[C@H](F)C5)nc4)sc3C2=O)cn1 [Example 13]				69.4ª %	105.0ª %		
N#Cc1cc(N2CCc3nc(-c4ccc(N5CCCC5)nc4)sc3C2=O)ccc1N [Example 18]				76.2ª %	102.0ª %	68.6 nM	

From patent US20240336627A1, “NOVEL COMPOUNDS FOR THE DIAGNOSIS OF TDP-43 PROTEINOPATHIES” (AC IMMUNE SA, priority 2021, published 2024)
